Patent US20160015803A1, “IMMUNOSTIMULATORY COMBINATIONS AND USE THEREOF” (priority 2014, published 2016)

System: markers of innate activation
Assay: in vivo activity, markers of innate activation after IV injection
Conditions: Rhesus; 24-72 hours after IV injection
From the text: Based on these findings in mice we explored the potential for the use of polyIC-LC/αCD40 combination vaccination in non-human primates (NHP) in order to validate the clinical efficacy. Human anti-human CD40 (Kirin Pharmaceuticals) having the variable heavy and light sequences in the Sequence Listing were produced in cell culture. CD40 binding activity and agonistic activity was confirmed against both human and Rhesus Macaque PBMCs. In vivo activity in Rhesus was also confirmed by examining markers of innate activation 24-72 hours after IV antibody injection. PolyIC-LC was obtained from Oncovir Inc. and its activity was confirmed in vivo similar to the αCD40.

Substance: PolyIC-LC
- In vivo activity (markers of innate activation): confirmed
